Measured values as given in patent US10130633B2, “Compounds” (BAYER PHARMA AKTIENGESELLSCHAFT, priority 2013, dated 2018).
Counter-ions that a name gives are not always drawn.

Experiments:
[1] = system: constitutive active colorectal cancer cell (CRC) Wnt pathway; assay: HCT116 TOPFlash cellular reporter assay (Super TopFlash luciferase), constitutive active Wnt pathway; assay type: cell-based; conditions: HCT116 TOP reporter cells, 36 hours incubation, luciferase expression
Experimental: In order to discover and characterize small molecules which inhibit the constitutive active colorectal cancer cell (CRC) Wnt pathway, a cellular reporter assay was employed. […] Stable transfectants were generated by cotransfection with pcDNA3 and selection of stable transfected cells with 1 mg/ml G418.

[2] = system: HCT116 FOP control reporter cell line; assay: HCT116 FOPFlash control reporter assay (FOP control vector, non-functional TCF elements); assay type: cell-based; conditions: HCT116 FOP control reporter cells, 36 hours incubation, luciferase expression
Description: In a parallel approach, HCT116 cells were cotransfected with the FOP control vector and pcDNA3. The FOP vector is identical to the TOP construct, but it contains instead of functional TCF elements a randomized, non-functional sequence. For this transfection a stable transfected cell line was generated as well.

SMILES | IC50 [1] | IC50 [2] | IC50 ([1]; Homo sapiens, HCT-116, 36 h) | IC50 ([2]; Homo sapiens, HCT-116, 36 h)
CC(C(=O)Nc1cc(C(=O)Nc2ccc(-c3ccccc3F)nc2)ccc1C(F)(F)F)N1CCOCC1 (stereo not drawn) [Example 211, N-[6-(2-fluorophenyl)pyridin-3-yl]-3-{[2-(morpholin-4-yl)propanoyl]amino}-4-(trifluoromethyl)benzamide] | 40.2 nM | 24600 nM |  | 
CN1CCN(CC(=O)Nc2cc(C(=O)Nc3nnc(-c4ccccc4Cl)s3)ccc2OC(F)(F)F)CC1 [Example 148, N-[5-(2-chlorophenyl)-1,3,4-thiadiazol-2-yl]-3-{[(4-methylpiperazin-1-yl)acetyl]amino}-4-(trifluoromethoxy)benzamide] |  |  | 205 nM | 36500 nM
CCN1CCN(CC(=O)Nc2cc(C(=O)Nc3nnc(-c4ccccc4)s3)ccc2OC(F)(F)F)CC1 [Example 172, 3-{[(4-ethylpiperazin-1-yl)acetyl]amino}-N-(5-phenyl-1,3,4-thiadiazol-2-yl)-4-(trifluoromethoxy)benzamide] |  |  | 855 nM | ≥ 50000 nM
CC(C(=O)Nc1cc(C(=O)Nc2ccc(-c3cccc(F)c3)nc2)ccc1OC(F)(F)F)N1CCOCC1 (stereo not drawn) [Example 69, N-[6-(3-fluorophenyl)pyridin-3-yl]-3-{[2-(morpholin-4-yl)propanoyl]amino}-4-(trifluoromethoxy)benzamide] | 14.8 nM | ≥ 50000 nM |  | 
CC(C(=O)Nc1cc(C(=O)Nc2ccc(-c3cccc(F)c3)nc2)ccc1OC(F)(F)F)N1C[C@@H]2C[C@H]1CO2 (stereo partly drawn) [Example 192, N-[6-(3-fluorophenyl)pyridin-3-yl]-3-({2-[(1S,4S)-2-oxa-5-azabicyclo[2.2.1]hept-5-yl]propanoyl}amino)-4-(trifluoromethoxy)benzamide] |  |  | 135 nM | 12400 nM
CC(C(=O)Nc1cc(C(=O)Nc2ccc(-c3cc(F)cc(F)c3)nc2)ccc1OC(F)(F)F)N1C[C@@H]2C[C@H]1CO2 (relative stereo) [Example 180, N-[6-(3,5-difluorophenyl)pyridin-3-yl]-3-({(2R*)-2-[(1S,4S)-2-oxa-5-azabicyclo[2.2.1]hept-5-yl]propanoyl}amino)-4-(trifluoromethoxy)benzamide] | 148 nM | 9800 nM |  | 
CN1CCN(C2(C(=O)Nc3cc(C(=O)Nc4ccc(-c5ccccc5F)nc4)ccc3OC3CC3)CC2)CC1 [Example 135, 4-(cyclopropyloxy)-N-[6-(2-fluorophenyl)pyridin-3-yl]-3-({[1-(4-methylpiperazin-1-yl)cyclopropyl]carbonyl}amino)benzamide] |  |  | 84.8 nM | ≥ 50000 nM
CC1CN(CC(=O)Nc2cc(C(=O)Nc3nnc(-c4ccccc4)s3)ccc2OC(F)(F)F)CCN1C (stereo not drawn) [Example 160, 3-{[(3,4-dimethylpiperazin-1-yl)acetyl]amino}-N-(5-phenyl-1,3,4-thiadiazol-2-yl)-4-(trifluoromethoxy)benzamide] |  |  | 948 nM | 28000 nM
CC(C(=O)Nc1cc(NC(=O)c2ccc(-c3cccc(F)c3)nc2)ccc1OC(F)(F)F)N1CCOCC1 (stereo not drawn) [Example 189, 6-(3-fluorophenyl)-N-[3-{[2-(morpholin-4-yl)propanoyl]amino}-4-(trifluoromethoxy)phenyl] nicotinamide] |  | 10000 nM | 138 nM | 
COc1ccc(NC(=O)c2ccc(-c3ccccc3F)nc2)cc1NC(=O)CN1CCOCC1 [Example 31, 6-(2-fluorophenyl)-N-{4-methoxy-3-[(morpholin-4-ylacetyl)amino]phenyl}nicotinamide] |  |  | 805 nM | 36000 nM
CC(C(=O)Nc1cc(C(=O)Nc2ccc(-c3ccc(O)cc3F)nc2)ccc1OC(F)(F)F)N1CCOCC1 (stereo not drawn) [Example 109, N-[6-(2-fluoro-4-hydroxyphenyl)pyridin-3-yl]-3-{[2-(morpholin-4-yl)propanoyl]amino}-4-(trifluoromethoxy)benzamide] |  |  | 208 nM | 29900 nM
COCc1ccc(C(=O)Nc2nnc(-c3ccccc3C)s2)cc1NC(=O)CN1CCOCC1 [Example 176, 4-(methoxymethyl)-N-[5-(2-methylphenyl)-1,3,4-thiadiazol-2-yl]-3-[(morpholin-4-ylacetyl)amino]benzamide] |  |  | 315 nM | ≥ 50000 nM
COc1ccc(NC(=O)c2nnc(-c3ccccc3)s2)cc1NC(=O)CN1CCOCC1 [Example 130, N-{4-methoxy-3-[(morpholin-4-ylacetyl)amino]phenyl}-5-phenyl-1,3,4-thiadiazole-2-carboxamide] |  |  | 318 nM | ≥ 50000 nM
CC(C)(C)c1ccc(NC(=O)c2ccc(-c3ccccc3)nc2)cc1NC(=O)CN1CCOCC1 [Example 18, N-{4-tert-butyl-3-[(morpholin-4-ylacetyl)amino]phenyl}-6-phenylnicotinamide] |  |  | 444 nM | 9900 nM
O=C(Nc1nnc(-c2ccc(F)cc2)s1)c1ccc(OC(F)(F)F)c(NC(=O)C2(N3CCOCC3)CC2)c1 [Example 90, N-[5-(4-fluorophenyl)-1,3,4-thiadiazol-2-yl]-3-({[1-(morpholin-4-yl)cyclopropyl]carbonyl}amino)-4-(trifluoromethoxy)benzamide] |  |  | 173 nM | ≥ 50000 nM
O=C(Nc1ccc(OC(F)(F)F)c(NC(=O)C2(N3CCOCC3)CC2)c1)c1cnc(-c2ccccc2)s1 [Example 108, N-[3-({[1-(morpholin-4-yl)cyclopropyl]carbonyl}amino)-4-(trifluoromethoxy)phenyl]-2-phenyl-1,3-thiazole-5-carboxamide] |  |  | 463 nM | ≥ 50000 nM
C[C@@H](C(=O)Nc1cc(C(=O)Nc2ccc(-c3ccc(CO)cc3)nc2)ccc1OC(F)(F)F)N1CCOCC1 (single isomer, unassigned) [Example 119, N-{6-[4-(hydroxymethyl)phenyl]pyridin-3-yl}-3-{[(2S)-2-(morpholin-4-yl)propanoyl]amino}-4-(trifluoromethoxy)benzamide or N-{6-[4-(hydroxymethyl)phenyl]pyridin-3-yl}-3-{[(2R)-2-(morpholin-4-yl)propanoyl]amino}-4-(trifluoromethoxy)benzamide] | 650 nM | ≥ 50000 nM |  | 
O=C(CN1CCOCC1)Nc1cc(C(=O)Nc2ccc(-c3cc(F)cc(F)c3)nc2)ccc1OC(F)(F)F [Example 72, N-[6-(3,5-difluorophenyl)pyridin-3-yl]-3-[(morpholin-4-ylacetyl)amino]-4-(trifluoromethoxy)benzamide] |  |  | 106 nM | 8000 nM
CC(C(=O)Nc1cc(NC(=O)c2ccc(-c3cc(F)cc(F)c3)nc2)ccc1OC(F)(F)F)N1CC2CCC(C1)O2 (stereo not drawn) [Example 186, 6-(3,5-difluorophenyl)-N-[3-{[2-(8-oxa-3-azabicyclo[3.2.1]oct-3-yl)propanoyl]amino}-4-(trifluoromethoxy)phenyl] nicotinamide] | 95.5 nM | 5400 nM |  | 
CC(C(=O)Nc1cc(C(=O)Nc2ccc(-c3ccc(C(F)F)cc3)nc2)ccc1OC(F)(F)F)N1CCOCC1 (stereo not drawn) [Example 112, N-{6-[4-(difluoromethyl)phenyl]pyridin-3-yl}-3-{[2-(morpholin-4-yl)propanoyl]amino}-4-(trifluoromethoxy)benzamide] |  |  | 270 nM | ≥ 50000 nM
Cc1ccc(C(=O)Nc2nnc(-c3ccccc3)s2)cc1NC(=O)C1(N2CCN(C)CC2)CC1 [Example 157, 4-methyl-3-({[1-(4-methylpiperazin-1-yl)cyclopropyl]carbonyl}amino)-N-(5-phenyl-1,3,4-thiadiazol-2-yl)benzamide hydrochloride (1:1)] |  |  | 96.6 nM | ≥ 50000 nM
